Reference: patent US8377922B2, “Benzazepinone compound” (Ube Industries, Ltd., priority 2007, dated 2013)
pIC50: −log10 of the molar value. Counter-ions that a name gives are not always drawn.

How the values were obtained:
[1] = tested on: αvβ6 expressed cells (HT-29 cells); experiment: Cell adhesion test of αvβ6 expressed cell; assay type: cell-based; conditions: binding to human fibronectin, read-out: αvβ6 expressed cells adhesion inhibiting IC50 value
Procedure: The experiment was carried out by partially modifying the method of Goodman et al. (J. Med. Chem., 45, 1045 (2002)).
Human fibronectin (available from CHEMICON) was adjusted to […] with PBS. This was applied on the 96-well plate (MS9586F, available from SUMIRON) with 100 μL/well, coating was carried out at room temperature for 1 hour, and the coating solution was removed and dried. Thereafter, a blocking treatment was carried out with 1.0% BSA dissolved in DMEM for 1 hour, and washed with PBS, and this was used as a coating plate in the adhesion test. HT-29 cells (available from Dainippon Sumitomo Pharma Co., Ltd.) cultured in McCoy's 5A medium containing 10% FBS were detached by using trypsin-ethylenediamine tetraacetic acid, washed with PBS and recovered. Then, the cells were suspended in DMEM to prepare a HT-29 cells suspension. DMEM solution containing the HT-29 cells and a compound to be tested were each added to human fibronectin coating plates each in an amount of 50 μL/well to start the adhesion test.
The adhesion test was carried out in a 5% carbonic acid gas incubator (37° C.) for 2 hours. After completion of the adhesion test, the supernatant was removed by aspiration, and the plates were washed with PBS. Then, Crystal violet staining was carried out, and the number of cells was measured. A concentration (IC50 value) of the compound to be tested necessary for inhibiting 50% of binding to human fibronectin was calculated by using EXSAS (available from Arm Systex Co., Ltd.).

[2] = tested on: αvβ3 expressed cells (HUVEC); experiment: Cell adhesion test of αvβ3 expressed cell; assay type: cell-based; conditions: binding to human vitronectin, 50% human serum-containing DMEM, read-out: αvβ3 expressed cells adhesion inhibiting IC50 value
Procedure: The experiment was carried out by partially modifying the method of Juliano et al. (Exp. Cell Res., 225(1), 132 (1996)).
Human vitronectin (available from CHEMICON) was adjusted to 10 μg/mL with phosphate buffered physiological saline (hereinafter abbreviated as PBS). This was applied onto the 96-well plate (MS9586F, available from SUMIRON) with 100 μL/well, coating was carried out at room temperature for 1 hour, and the coating solution was removed and the plate was dried. Thereafter, blocking treatment was carried out with 1.0% BSA dissolved in Dulbecco's Modified Eagle Medium (hereinafter abbreviated as DMEM) for 1 hour, washed with PBS, and the resulting material was used for the adhesion test as a coating plate. HUVEC (human umbilical endothelial cells) (available from Clonetics Corp.) cultured in endothelian cell basal medium EBM2 (available from Clonetics Corp.) containing EGM-2 SingleQuot Kit suppi. & growth factors EGM2 (available from Clonetics Corp.) and 10% fetal bovine serum (hereinafter abbreviated as FBS) were detached by using trypsin-ethylenediamine tetraacetic acid, washed by using PBS and recovered, and then, suspended in 50% human serum-containing DMEM to prepare cell suspension of HUVEC. […]
The adhesion test was carried out in a 5% carbonic acid gas incubator (37° C.) for 1 hour. […] Crystal violet staining was carried out, and the number of stained cells was measured. […]

SMILES | pIC50 [1] | pIC50 [2]
CNc1cccc(CCOc2ccc3c(c2)CN(CC(F)(F)F)C(=O)C(CC(=O)O)C3)n1 (racemic) [Compound A, 8-[2-[6-(methylamino)-pyridin-2-yl]-1-ethoxy]-3-oxo-2-(2,2,2-trifluoroethyl)-2,3,4,5-tetrahydro-1H-2-benz-azepin-4-acetic acid, reference compound] | < 4.00 | –
O=C(O)CC1Cc2ccc(OCCc3cn4c(n3)NCCC4)cc2CN(CC(F)(F)F)C1=O (stereo not shown) [Example 2, 3-oxo-8-[2-(5,6,7,8-tetrahydroimidazo[1,2-a]pyrimidin-2-yl)ethoxy]-2-(2,2,2-tri-fluoroethyl)-2,3,4,5-tetrahydro-1H-2-benzazepin-4-acetic acid trifluoroacetate] | 6.36 | 7.21
O=C(O)C[C@@H]1Cc2ccc(OCCc3cn4c(n3)NCCC4)cc2CN(CC(F)(F)F)C1=O [Example 4, (4S)-3-oxo-8-[2-(5,6,7,8-tetrahydroimidazo[1,2-a]pyrimidin-2-yl)ethoxy]-2-(2,2,2-trifluoroethyl)-2,3,4,5-tetrahydro-1H-2-benzazepin-4-acetic acid] | 6.53 | –
